Test results taken from the supplement of paper PMC10307832.

How the values were obtained:
Test in all cases: relative viability (nuclei count vs DMSO), 5 days (fraction); higher = more cells survive
QS11 + Pemetrexed = compound: C1CC2=C(C1)C=C(C=C2)OC3=NC(=C4C(=N3)N(C=N4)CC5=CC=C(C=C5)C6=CC=CC=C6)N[C@@H](CC7=CC=CC=C7)CO [QS11] + Nc1nc2[nH]cc(CCc3ccc(C(=O)N[C@@H](CCC(=O)O)C(=O)O)cc3)c2c(=O)[nH]1 [Pemetrexed] (partner 0.2 µM)
In short: (§1)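 Dosing by pin tool came one day after lung cancer cell lines were seeded in 1536-well plates, using either one drug or a fixed anchor-drug dose plus five library-drug doses (not always all listed) in √10 steps. After 5 days, nuclei were counted on 4× images. Relative viability is treated-well nuclei count divided by vehicle-well nuclei count, and values are medians of duplicate plates.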

AZ628 + Bortezomib = compound: CC1=C(C=C(C=C1)NC(=O)C2=CC(=CC=C2)C(C)(C)C#N)NC3=CC4=C(C=C3)N=CN(C4=O)C [AZ628] + CC(C)C[C@H](NC(=O)[C@H](Cc1ccccc1)NC(=O)c1cnccn1)B(O)O [Bortezomib] (partner 0.002 µM)
In short: as §1

AZ628 + Luminespib = compound: CC1=C(C=C(C=C1)NC(=O)C2=CC(=CC=C2)C(C)(C)C#N)NC3=CC4=C(C=C3)N=CN(C4=O)C [AZ628] + CCNC(=O)c1noc(-c2cc(C(C)C)c(O)cc2O)c1-c1ccc(CN2CCOCC2)cc1 [Luminespib] (partner 0.01 µM)
In short: as §1

[1] = compound: C[As](C)SC[C@H](NC(=O)CC[C@H](N)C(=O)O)C(=O)NCC(=O)O [Darinaparsin] + CCNC(=O)c1noc(-c2cc(C(C)C)c(O)cc2O)c1-c1ccc(CN2CCOCC2)cc1 [Luminespib] (partner 0.01 µM)
In short: as §1

Cell Line | relative viability (QS11 + Pemetrexed; first compound 0.08 µM) | relative viability (QS11 + Pemetrexed; first compound 0.253 µM) | relative viability (QS11 + Pemetrexed; first compound 0.8 µM) | relative viability (QS11 + Pemetrexed; first compound 2.53 µM) | relative viability (QS11 + Pemetrexed; first compound 8 µM) | relative viability (AZ628 + Bortezomib; first compound 0.08 µM) | relative viability (AZ628 + Bortezomib; first compound 0.253 µM) | relative viability (AZ628 + Bortezomib; first compound 0.8 µM) | relative viability (AZ628 + Bortezomib; first compound 2.53 µM) | relative viability (AZ628 + Bortezomib; first compound 8 µM) | relative viability (AZ628 + Luminespib; first compound 0.08 µM) | relative viability (AZ628 + Luminespib; first compound 0.253 µM) | relative viability (AZ628 + Luminespib; first compound 0.8 µM) | relative viability (AZ628 + Luminespib; first compound 2.53 µM) | relative viability (AZ628 + Luminespib; first compound 8 µM) | relative viability ([1]; first compound 0.08 µM) | relative viability ([1]; first compound 0.8 µM) | relative viability ([1]; first compound 2.53 µM) | relative viability ([1]; first compound 8 µM)
NCI-H1563 | 0.806 | 0.838 | 0.722 | 0.881 | 0.886 | 0.898 | 0.856 | 0.894 | 0.855 | 0.95 | 0.531 | 0.524 | 0.519 | 0.56 | 0.515 | 0.588 | 0.429 | 0.495 | 0.473
SW 1573 | 0.811 | 0.926 | 0.792 | 0.418 | 0.539 | 0.952 | 0.911 | 0.886 | 0.946 | 0.621 | 0.315 | 0.258 | 0.16 | 0.189 | 0.171 | 0.23 | 0.364 | 0.302 | 0.249
HARA | 0.251 | – | 0.215 | 0.244 | 0.256 | 1.1 | 1.08 | 1.08 | 1.03 | 0.568 | 0.463 | 0.726 | 0.548 | 0.779 | 0.39 | 1.19 | 0.684 | 0.659 | 0.773
NCI-H1755 | 0.554 | 0.443 | 0.39 | 0.446 | 0.355 | 0.947 | 0.878 | 0.909 | 0.942 | 0.818 | 0.326 | 0.446 | 0.443 | 0.421 | 0.278 | 0.491 | 0.393 | 0.411 | 0.57
NCI-H460 | 0.056 | 0.0683 | 0.0585 | 0.0792 | 0.0751 | 1.18 | 1.13 | 0.8 | 0.994 | 0.952 | 0.0338 | 0.033 | 0.0403 | 0.0274 | 0.0264 | 0.0325 | 0.033 | 0.0441 | 0.0347
NCI-H3122 | 0.2 | 0.214 | – | 0.25 | 0.296 | 0.987 | 0.887 | 0.723 | 0.696 | 0.444 | 0.0933 | 0.0771 | 0.11 | 0.0973 | 0.0958 | 0.0869 | 0.0882 | 0.107 | 0.112
COR-L 105 | 1.14 | 0.96 | 1.04 | 0.955 | 0.942 | 1.01 | 0.978 | 0.885 | 0.867 | 0.544 | 0.828 | 0.591 | 0.761 | 0.86 | 0.635 | 0.867 | 0.775 | 0.712 | 0.682
NCI-H2087 | 0.646 | 0.646 | 0.675 | 0.692 | 0.757 | 0.831 | 0.738 | 0.783 | 0.775 | 0.399 | 0.132 | 0.155 | 0.159 | 0.193 | 0.152 | 0.159 | 0.162 | 0.204 | 0.184
NCI-H1792 | – | 0.603 | 0.925 | 0.629 | 0.514 | 1.06 | 0.925 | 0.857 | 0.923 | 0.555 | 0.528 | 0.372 | 0.334 | 0.435 | 0.192 | 0.681 | 0.387 | – | 0.539
NCI-H2347 | 0.455 | 0.426 | 0.396 | 0.458 | 0.446 | 0.859 | 0.962 | 0.721 | 0.828 | 0.623 | 0.287 | 0.239 | 0.301 | 0.255 | 0.218 | 1.01 | – | 0.414 | 0.388
201T | 0.357 | 0.348 | 0.328 | 0.358 | 0.267 | 1.15 | 1.13 | 1.13 | 1.16 | 1.21 | 1.07 | 1.02 | 1.14 | 1.05 | 1.14 | 1.1 | 1.03 | 0.958 | 1.16
NCI-H1993 | 0.649 | 0.503 | 0.618 | 0.573 | 0.618 | 1.1 | 1.03 | 0.932 | 0.711 | 0.815 | 0.991 | 0.683 | 0.702 | 0.753 | 0.613 | 0.957 | 0.698 | 0.724 | 0.723
NCI-H2009 | 1.08 | 1.06 | 1.01 | 0.978 | 0.985 | 0.939 | 0.881 | 0.65 | 0.689 | 0.295 | 0.967 | 0.957 | 0.894 | 0.966 | 0.38 | 1.18 | 1.01 | 1.01 | 1.07
EMC-BAC-2 | 0.461 | 0.463 | 0.409 | 0.594 | 0.445 | 1.11 | 0.963 | 1 | 0.991 | 1.08 | 1.22 | 1.03 | 1.16 | 1.07 | 1.12 | 0.763 | 1.15 | 1.16 | 1.49
NCI-H2023 | 0.293 | 0.276 | 0.241 | 0.197 | 0.194 | 1.19 | 1.07 | 1.06 | 0.981 | 0.821 | 0.818 | 0.76 | 0.666 | 0.65 | 0.653 | 0.927 | 0.714 | 0.827 | 0.882
RERF-LC-KJ | 0.51 | 0.461 | 0.443 | 0.482 | 0.439 | 1.22 | 1.14 | 1.29 | 1.12 | 1.03 | 1.21 | 1.23 | 1.43 | 1.08 | 1.19 | 1.97 | 1.21 | 1.11 | 1.15
H3255 | 0.578 | 0.632 | 0.532 | 0.562 | 0.53 | 0.837 | 0.621 | 0.811 | 0.81 | 0.66 | 1.03 | 0.891 | 0.929 | 1 | 0.556 | 0.88 | 0.94 | 0.807 | 0.95
